Source: patent US8138166B2, “Method to induce fatty liver in animal” (Taipei Medical University, priority 2010, dated 2012)

Columns and labels:
[1] = tested on: liver; test: Liver biochemical analysis (liver lipids, TBARS, TNF-α, hydroxyproline); assay type: in vivo, SD rats; settings: experimental group: 60% high fat diet + rotenone i.p., 8 weeks
Excerpt: (§1) SD rats are selected to use as the laboratory animals in the present embodiment. All SD rats are bred at the cages, and adequate feeds and water are given during the adaptive period and the experimental period. After the adaptive period, the SD rats are randomly divided into three groups concluding a control group, an experimental group, and a contrast group, and there are 6 SD rats in each group. In the control group, the SD rats are fed with AIN-93M diet. The SD rats in the experimental group are fed with the modified AIN-93M diet whose fat calorie is accounted for 60% of total calorie thereof, and the mitochondrial inhibitor (rotenone) is injected into the SD rats via an intraperitoneal injection once every two days. The dosage of the rotenone is about 2.5 mg/kg/day. The components of the diet and the fat percentage in the contrast group and the experimental group are the same. Normal saline is injected into the SD rats in the contrast group via the intraperitoneal injection to differentiate from the experimental group. After feeding 8 weeks, the SD rats in each group are sacrificed to collect arteria coeliaca blood and to obtain livers after perfusing 0.9% normal saline thereinto for determining the pathological analysis of the liver, the blood biochemical analysis and the liver biochemical analysis.
The lipid extracts are obtained from the livers of the SD rats in each group to analyze the contents of total cholesterol, triglyceride, and non-esterified fatty acids, as shown below Table 2.
Additionally, if oxidative stress, such as reactive oxygen species (ROS), is increased in vivo, lipid peroxides may be increased. Because the half life of the ROS is shorter than that of the lipid peroxides, the lipid peroxides, such as thiobarbituric acid-reactive-substance (TBARS), are used as the oxidative stress index. The livers of the SD rats in each group are respectively prepared to obtain homogeneous liquids for analyzing the concentration of the TBARS by a fluorophotometer. […] The concentrations of the TBARS in the control group, the experimental group and the contrast group are respectively 0.51±0.05, 2.18±0.19 and 1.15±0.09 μM/mg protein. That means in the experimental group, the oxidative stress in the livers of the SD rats is highest.
In the NAFLD progression, when high oxidative stress is existed in a liver for a long time, inflammatory cytokines, such as tumor necrosis factor-alpha (TNF-α), are increased. After the SD rats are sacrificed, the concentration of the TNF-α is determined to analyze whether the inflammatory response is induced or not. […] The concentrations of TNF-α in the control group, the experimental group, and the contrast group are respectively 13.96±1.05, 21.34±0.77, and 19.51±1.11 pg/mg protein. Following the results as set forth, the livers of rats in the experimental group have the inflammatory response. […] But, once livers are existed in high oxidative stress, the liver injuries thereof from simple steatosis to necrosis or fibrosis are performed. Therefore, the collagen index (i.e. the fibrosis index), hydroxyproline, in the livers should be determined. The concentrations of the hydroxyproline in the control group, the experimental group, and the contrast group are 3.32±1.05, 6.68±0.77, and 4.05±1.11 μg/mg protein, respectively. It indicates the concentration of the hydroxyproline in the experimental group is higher than those of in the control group and the contrast group.

[2] = tested on: succinate cytochrome c reductase (SCCR), mitochondrial complex II and III; test: SCCR activity in hepatocytes; assay type: in vivo, SD rats; settings: experimental group: 60% high fat diet + rotenone i.p., 8 weeks
Excerpt: as §1
(§2) Rotenone is hydrophobic, and can diffuse to organelles including mitochondria. […]

[3] = tested on: liver; test: Liver histopathology (H&E staining) of SD rats fed high fat diet and injected with rotenone; assay type: in vivo; settings: experimental group: 60% high fat diet + rotenone 2.5 mg/kg/day i.p., 8 weeks
Excerpt: as §1
Livers of the SD rats in each group are all stained by H&E staining. […]

[4] = tested on: mitochondrial complex I; test: Mitochondrial complex I activity inferred from NCCR and SCCR activity; assay type: in vivo, SD rats; settings: experimental group: 60% high fat diet + rotenone i.p., 8 weeks; combined NCCR and SCCR results
Excerpt: as §1, §2

[5] = tested on: cytochrome c oxidase (CCO), mitochondrial complex IV; test: CCO activity in hepatocytes; assay type: in vivo, SD rats; settings: experimental group: 60% high fat diet + rotenone i.p., 8 weeks
Excerpt: as §1, §2

[6] = Blood biochemical analysis and liver function index; assay type: in vivo, SD rats; settings: experimental group: 60% high fat diet + rotenone i.p., 8 weeks
Excerpt: as §1
The blood biochemical analyses of cholesterol, triglyceride, and non-esterified fatty acids are examined. The liver function indexes of aspartate aminotransferase (AST) and alanine aminotransferase (ALT) are also analyzed.

[7] = Visceral fat weight; assay type: in vivo, SD rats; settings: experimental group: 60% high fat diet + rotenone 2.5 mg/kg/day i.p. once every two days, 8 weeks; epididymis and perirenal adipose tissue
Excerpt: as §1, with “analysis. […]” for “analysis.”

[8] = tested on: NADH cytochrome c reductase (NCCR), mitochondrial complex I and III; test: NCCR activity in hepatocytes; assay type: in vivo, SD rats; settings: experimental group: 60% high fat diet + rotenone i.p., 8 weeks
Excerpt: as §1, §2

For `C=C(C)[C@H]1Cc2c(ccc3c2O[C@@H]2COc4cc(OC)c(OC)cc4[C@@H]2C3=O)O1` [rotenone], the “concentration of TNF-α” value [1] was 21.34±0.77 pg/mg protein, the “concentration of hydroxyproline (liver)” value ([1]; collagen/fibrosis index) was 6.68±0.77 μg/mg protein and the “concentration of TBARS (liver)” value ([1]; liver homogenate, fluorophotometer) was 2.18±0.19 μM/mg protein. For the same compound, the “Non-esterified fatty acids (liver)” value ([1]; liver lipid extract) was 5.02 ± 0.38 µmol/g, the “Total cholesterol (liver)” value ([1]; liver lipid extract) was 131.74 ± 5.30 mg/dL and the “Triglyceride (liver)” value ([1]; liver lipid extract) was 6.78 ± 0.55 mg/dL. For the same compound, the SCCR activity [2] was 0.51 ± 0.05 nmol/cytochrome c reduced/min/mg protein, the “cell morphology (H&E staining of liver)” value [3] was “lipid drops and ballooning degeneration” and the “mitochondrial complex I activity versus control group and contrast group” value [4] was “lower”. The CCO activity [5] was 5.57 ± 2.88 nmol/cytochrome c oxidized/min/mg protein, the ALT [6] was 39.4 ± 2.61 IU/L and the AST [6] was 90.1 ± 13.68 IU/L. For the same compound, the “Cholesterol (blood)” value [6] was 73.4 ± 7.61 mg/dL, the “Triglyceride (blood)” value [6] was 60.1 ± 10.15 mg/dL and the visceral fat weight [7] was 51.28±3.41 grams. The NCCR activity [8] was 0.68 ± 0.26 nmol/cytochrome c reduced/min/mg protein.
